Data: ChEMBL document CHEMBL1201862, “PubChem BioAssay data set” (2004)
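Results reflect a 48-hour exposure of cells in 96-well plates to compound at five concentrations. GI50: concentration for 50% inhibition of growth.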 Active and inactive are the calls of the source. No stated cut-off is given here; in the data, active = GI50 up to about 1.1 µM and inactive = higher.

Columns and labels:
Assay in all cases: NCI-60 cell line screen, 48 h
SNB-75 = test system: SNB-75
HL-60 = test system: HL-60
HCT-116 = test system: HCT-116
NCI-H460 = test system: NCI-H460
SK-MEL-28 = test system: SK-MEL-28
CCRF-CEM = test system: CCRF-CEM
U-251 = test system: U-251
A549 = test system: A549
NCI-H23 = test system: NCI-H23
ACHN = test system: ACHN
HCC 2998 = test system: HCC 2998
SK-MEL-5 = test system: SK-MEL-5
HT-29 = test system: HT-29
NCI-H226 = test system: NCI-H226
SN12C = test system: SN12C
DLD-1 = test system: DLD-1
M14 = test system: M14
DMS-273 = test system: DMS-273
MDA-N = test system: MDA-N
NCI/ADR-RES = test system: NCI/ADR-RES

Measured: GI50

C/C(=N\NC(N)=S)c1ccc2c(c1)OCO2
inactive: SNB-75 > 100 µM | HL-60 21.2 µM | HCT-116 > 100 µM | NCI-H460 > 100 µM | SK-MEL-28 > 100 µM | CCRF-CEM 56.8 µM | U-251 > 100 µM | A549 > 100 µM | NCI-H23 > 100 µM | ACHN > 100 µM | HCC 2998 > 100 µM | SK-MEL-5 > 100 µM | HT-29 > 100 µM | NCI-H226 > 100 µM | SN12C > 100 µM | DLD-1 61.9 µM | M14 > 100 µM

CC(=O)c1c2c(cc3c1CC1(C3)Cc3cc4c(c(C(C)=O)c3C1)CCC4)CCC2
inactive: SNB-75 82.4 µM | HL-60 19.3 µM | HCT-116 > 100 µM | NCI-H460 > 100 µM | SK-MEL-28 > 100 µM | CCRF-CEM > 100 µM | U-251 > 100 µM | A549 > 100 µM | NCI-H23 > 100 µM | ACHN > 100 µM | HCC 2998 > 100 µM | SK-MEL-5 > 100 µM | HT-29 > 100 µM | SN12C > 100 µM | DLD-1 > 100 µM | M14 > 100 µM

CC(=O)OC1(C#N)CC2OC1C1C2N1C(=O)OC(C)(C)C (stereo unspecified)
inactive: SNB-75 > 100 µM | HL-60 > 100 µM | HCT-116 > 100 µM | NCI-H460 > 100 µM | SK-MEL-28 > 100 µM | CCRF-CEM > 100 µM | U-251 > 100 µM | A549 > 100 µM | NCI-H23 > 100 µM | ACHN > 100 µM | HCC 2998 > 100 µM | SK-MEL-5 > 100 µM | NCI-H226 > 100 µM | SN12C > 100 µM | DLD-1 > 100 µM | M14 > 100 µM

CC(C)(c1cn(Cc2ccccc2)c2ccccc12)c1cn(Cc2ccccc2)c2ccccc12
inactive: SNB-75 17.3 µM | HL-60 > 100 µM | HCT-116 > 100 µM | NCI-H460 > 100 µM | CCRF-CEM > 100 µM | U-251 > 100 µM | A549 > 100 µM | NCI-H23 > 100 µM | ACHN > 100 µM | SK-MEL-5 > 100 µM | HT-29 > 100 µM | NCI-H226 51.3 µM | SN12C 1.7 µM | DLD-1 91.2 µM | M14 > 100 µM

CC(SC(=O)Nc1ccc(/N=N/c2ccccc2)cc1)C(=O)O (stereo unspecified)
inactive: SNB-75 6.4 µM | HL-60 38.6 µM | HCT-116 > 100 µM | NCI-H460 > 100 µM | SK-MEL-28 > 100 µM | DMS-273 48.6 µM | CCRF-CEM 36 µM | U-251 > 100 µM | A549 56.4 µM | NCI-H23 > 100 µM | ACHN 57.9 µM | HCC 2998 > 100 µM | HT-29 68.4 µM | NCI-H226 > 100 µM | SN12C > 100 µM | M14 > 100 µM

COc1ccc(-c2cc(=O)c3ccc(O)cc3o2)c(OC)c1OC
inactive: SNB-75 28.7 µM | HL-60 31.6 µM | HCT-116 51.9 µM | SK-MEL-28 64.3 µM | CCRF-CEM 42.8 µM | A549 55.7 µM | NCI-H23 43.4 µM | ACHN 40.9 µM | HCC 2998 48.8 µM | HT-29 60.4 µM | NCI-H226 > 100 µM | SN12C 82.8 µM | DLD-1 93.1 µM | M14 72.9 µM

O=C(Nc1c(O)[nH]c(=S)[nH]c1=O)c1ccccn1
inactive: SNB-75 > 100 µM | HL-60 > 100 µM | HCT-116 > 100 µM | NCI-H460 > 100 µM | SK-MEL-28 > 100 µM | CCRF-CEM > 100 µM | U-251 > 100 µM | A549 > 100 µM | NCI-H23 > 100 µM | ACHN > 100 µM | SK-MEL-5 > 100 µM | HT-29 > 100 µM | NCI-H226 > 100 µM | SN12C > 100 µM | DLD-1 > 100 µM | M14 > 100 µM

O=C1CC(c2cccc([N+](=O)[O-])c2)C2(C(=O)NC(=S)NC2=O)C(c2cccc([N+](=O)[O-])c2)C1 (stereo unspecified)
inactive: SNB-75 43.4 µM | HL-60 40.3 µM | HCT-116 18.7 µM | MDA-N 43 µM | NCI-H460 35.6 µM | SK-MEL-28 52.8 µM | CCRF-CEM 27.6 µM | NCI/ADR-RES > 100 µM | U-251 26.2 µM | A549 31 µM | NCI-H23 29.2 µM | ACHN 72.1 µM | HCC 2998 20.2 µM | SK-MEL-5 82.2 µM | HT-29 40.9 µM | NCI-H226 21 µM | SN12C 19.9 µM | M14 21.9 µM

Nc1ccc2c(c1)C(=O)c1ccc(F)cc1-2
inactive: SNB-75 > 100 µM | HL-60 > 100 µM | HCT-116 88.5 µM | MDA-N > 100 µM | NCI-H460 > 100 µM | SK-MEL-28 > 100 µM | CCRF-CEM > 100 µM | NCI/ADR-RES > 100 µM | U-251 40.8 µM | A549 > 100 µM | NCI-H23 > 100 µM | ACHN > 100 µM | HCC 2998 > 100 µM | SK-MEL-5 > 100 µM | HT-29 > 100 µM | NCI-H226 > 100 µM | SN12C > 100 µM | M14 > 100 µM
